This assay addresses T1, CBS (Homo sapiens, UniProt P35520).
T1 sequence (P35520 1-551): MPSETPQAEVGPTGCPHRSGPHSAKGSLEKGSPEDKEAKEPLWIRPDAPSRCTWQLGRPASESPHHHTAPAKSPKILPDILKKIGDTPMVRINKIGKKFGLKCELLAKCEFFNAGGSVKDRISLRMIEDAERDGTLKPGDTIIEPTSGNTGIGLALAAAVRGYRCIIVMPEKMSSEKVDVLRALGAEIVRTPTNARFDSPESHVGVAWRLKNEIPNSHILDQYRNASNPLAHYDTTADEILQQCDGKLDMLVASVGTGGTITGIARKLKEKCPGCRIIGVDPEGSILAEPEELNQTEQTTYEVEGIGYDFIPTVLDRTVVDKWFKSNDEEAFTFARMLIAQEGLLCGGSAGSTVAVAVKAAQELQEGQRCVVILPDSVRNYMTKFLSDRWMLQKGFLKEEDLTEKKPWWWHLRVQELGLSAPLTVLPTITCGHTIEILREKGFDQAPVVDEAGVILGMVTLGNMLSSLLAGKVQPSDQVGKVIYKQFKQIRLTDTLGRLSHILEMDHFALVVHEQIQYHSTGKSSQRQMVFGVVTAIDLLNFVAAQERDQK
Description: CBS inhibitor screen: H2S production by recombinant CBS (methylene blue assay). The assay is classed as biochemical. On the set-up: These studies used full-length human CBS enzyme; made in house; host or cells: E. coli BL21 (DE3) Codon Plus. The conditions noted are these: for inhibition at 100 µM: read-out: Inhibition of CBS activity at 100 μM. The source says: Studies have been performed characterizing, in detail, the specificity and selectivity of all known H2S biosynthesis inhibitors, using recombinant CBS and CSE enzymes. These studies used full-length human CBS enzyme, and a colorimetric ‘capture’ reaction of the H2S produced by these enzymes, an assay generally known as the ‘methylene blue assay’. This assay is used in a 96-well plate format, as well as in combination with a second screening method based on a fluorescent dye.
Human recombinant CBS is expressed as described (Asimakopoulou et al, (2013) Br J Pharmacol. 169(4):922-32). A library of pharmacologically active compounds (e.g., LOPAC library, Sigma; 1240 compounds) is tested on homocysteine-induced H2S production. In certain aspects the assay is in a 96-well format. In certain aspects H2S production is measured by the methylene blue assay (Asimakopoulou et al., (2013) Br J Pharmacol. 169(4):922-32).
Plasmids, bacterial strains and media. E. coli BL21 (DE3) Codon Plus is used as a host strain to express recombinant human CSE or CBS. CSE cDNA was cloned into pGEX-4T3 and CBS into pGEX-Kg to create N-terminal GSH-S-transferase (GST) fusion proteins. The expression vectors were transformed and plated on LB-agar plates, supplemented with ampicillin (100 μg/mL).
The expression and purification of CSE and CBS is performed as described previously with modifications (Frank et al., (2008) Arch Biochem Biophys 470:64-72; Huang et al., (2009) J Mol Biol 396: 708-18). Briefly, BL21(DE3) Codon Plus cells containing either the expression vector pGEX-4T3/GST-CSE or pGEX-Kg/GST-CBS are grown at 37° C. and 180 r.p.m. in LB broth medium containing 100 μg/mL ampicillin to an absorption of 0.6-0.8 at 600 nm. In addition, 0.3 mM d-ALA is added to the culture containing pGEX-Kg/GST-CBS. Then protein expression is induced by addition of 0.1 mM IPTG. Cells containing pGEX-4T-3/GST-CSE are incubated overnight at 18° C., whereas cells containing pGEXKg/GST-CBS are incubated overnight at 30° C. Culture is then centrifuged at 4° C. and 5000×g for 10 min and the cell pellet was resuspended in PBS (140 mM NaCl, 2.7 mM KCl, 10 mM Na2HPO4, 1.8 mM KH2PO4, pH 7.8) and stored at −20° C. overnight. After thawing, the suspension is sonicated in lysis buffer containing PBS and protease inhibitor cocktail for GST-CSE and PBS, 5 mM DTT, 1% Triton X-100, […] and protease inhibitor cocktail for GST-CBS. After centrifugation at 4° C. for 30 min, the soluble fraction containing either the GST-CSE or the GST-CBS recombinant protein is loaded onto a GSTrap FF 1 mL affinity column that has been equilibrated with binding buffer PBS. The column was consecutively washed with five column volumes of binding buffer. Proteins attached to the column, including GST-CSE or GST-CBS recombinant proteins, are eluted with five column volumes of elution buffer (50 mM Tris-HCl, 10 mM reduced GSH, pH 8.0) and then dialysed and concentrated in 10 mM sodium phosphate buffer pH 8.2 and DTT 1 mM. The purity of the recombinant enzymes was checked by SDS-PAGE on 12% polyacrylamide gels after staining of protein bands with Coomassie Blue R-250. Protein concentration was determined using the DC protein assay kit.
H2S determination is performed according to Stipanuk and Beck ((1982) Biochem J 206:267-77) with some modifications. In the case of the CSE enzyme, an assay consist of a 100 μL reaction mixture containing 5 μg of the purified CSE enzyme, 0.01 mM PLP, 1 mM L-cys, and 50 mM sodium phosphate buffer pH 8.2. For the CBS enzyme, the reaction mixture contains the same as for the CSE plus 1 mM homocysteine. The inhibitors can be added to the reaction before L-cys is added to the solution. Reactions are initiated by transferring the reaction solutions from ice to a 37° C. shaking water bath. After incubation at 37° C. the reaction is terminated by adding 1% ZnAc to trap H2S followed by 10% TCA to precipitate proteins. […]

The mark [1] stands for this setting: 100 μM, homocysteine-induced H2S production, LOPAC library screen.

Structures can show the parent of a compound that is named as a salt. Where two headings read alike, the source gives them in different places.

Regarding `Cc1ccc(C(=O)Nc2ccc(S(=O)(=O)O)c3cc(S(=O)(=O)O)cc(S(=O)(=O)O)c23)cc1NC(=O)c1cccc(NC(=O)Nc2cccc(C(=O)Nc3cc(C(=O)Nc4ccc(S(=O)(=O)O)c5cc(S(=O)(=O)O)cc(S(=O)(=O)O)c45)ccc3C)c2)c1` [Suramin sodium], the inhibition at 100 µM under setting [1] amounted to 57%.
On the same count and under the same terms, the result for `CC(C)C(=O)c1c(C(C)C)nn2ccccc12` [Ibudilast] reads 30%.
Consider `CC(=O)c1c(O)c(C)c(O)c(Cc2c(O)c3c(c(C(=O)/C=C/c4ccccc4)c2O)OC(C)(C)C=C3)c1O` [Rottlerin], for which the inhibition at 100 µM came out at 96%.
For the compound `COc1cccc2c1C(=O)c1c(O)c3c(c(O)c1C2=O)C[C@@](O)(C(=O)CO)C[C@@H]3O[C@H]1C[C@H](N)[C@H](O)[C@H](C)O1` [Doxorubicin], under setting [1], the inhibition at 100 µM was 52%.
As for `CC(C)(Sc1ccc(CCN(CCCCC2CCCCC2)C(=O)NC2CCCCC2)cc1)C(=O)O` [GW7647], under setting [1], the inhibition at 100 µM was determined as 73%.
Regarding `CC1=C(/C=C/C(C)=C/C=C/C(C)=C/C(=O)O)C(C)(C)CCC1` [Retinoic acid], the inhibition at 100 µM under setting [1] worked out at 43%.
Still for that read-out and setting: the result for `Cc1c(C)c2c(c(C)c1O)CCC(C)(COc1ccc(CC3SC(=O)NC3=O)cc1)O2` (centres unmarked) [Troglitazone] reads 30%; that for `C[C@@H](N)[C@H]1CC[C@H](C(=O)Nc2ccncc2)CC1` [Compound Y-27632], 94%.
With `CN1CC[C@@]2(C)c3cc(O)ccc3N(C)[C@@H]12.O=C(O)/C=C/C(=O)O` [Eseroline fumarate], the “Inhibition of CBS activity at 100 μM” value under setting [1] was found to be 60%.
Take `Cl.NC[C@@H]1O[C@H](C23CC4CC(CC(C4)C2)C3)Cc2c1ccc(O)c2O` [A-77636 hydrochloride]: the “Inhibition of CBS activity at 100 μM” value under setting [1] is 30%.
Take `CN(N=O)c1ccc(O)c(O)c1` [Me-3,4-dephostatin]: the “Inhibition of CBS activity at 100 μM” value under setting [1] is 85%.
As to `CC[N+](C)(CC)CCC[n+]1c(-c2ccccc2)c2cc(N)ccc2c2ccc(N)cc21.[I-].[I-]` [Propidium iodide], the “Inhibition of CBS activity at 100 μM” value under setting [1] is 41%.
Consider `CN(C)[C@@H]1C(O)=C(C(N)=O)C(=O)[C@@]2(O)C(O)=C3C(=O)c4c(O)cccc4[C@@](C)(O)[C@H]3C[C@@H]12` [Tetracycline], for which, under setting [1], the inhibition at 100 µM was 43%.
`C=C1CC[C@H](O)C/C1=C/C=C1\CCC[C@]2(C)[C@@H]([C@H](C)CCCC(C)(C)O)CC[C@@H]12` [Calcifediol]: the inhibition at 100 µM under setting [1] was 32%.
The same measure, in the same setting: the result for `CCC1(c2ccccc2)NC(=O)N(C)C1=O` (centres unmarked) [Mephenytoin] reads 32%.
Regarding `C[n+]1c2cc(N)ccc2cc2ccc(N)cc21` [Acriflavinium], the “Inhibition of CBS activity at 100 μM” value under setting [1] is 64%.
Take `O=C1Nc2ccc(I)cc2/C1=C/c1cc(Br)c(O)c(Br)c1` [GW5074]: the “Inhibition of CBS activity at 100 μM” value under setting [1] stood at 87%.
Take `C[C@H]1c2cccc(O)c2C(=O)C2=C(O)[C@]3(O)C(=O)C(C(N)=O)=C(O)[C@@H](N(C)C)[C@@H]3[C@@H](O)[C@@H]21` [Doxycycline]: the inhibition at 100 µM under setting [1] stood at 57%.
Take `CN1CC[C@@]2(C)c3cc(OC(=O)Nc4ccccc4)ccc3N(C)[C@@H]12` [Phenserine]: the inhibition at 100 µM under setting [1] turned out to be 53%.
For the compound `COc1cc(C(=O)NS(=O)(=O)c2ccccc2C)ccc1Cc1cn(C)c2ccc(NC(=O)OC3CCCC3)cc12` [Zafirlukast], the inhibition at 100 µM under setting [1] came out at 81%.
As to `C[C@H](CCC(=O)O)[C@H]1CC[C@H]2[C@@H]3CC[C@@H]4C[C@H](O)CC[C@]4(C)[C@H]3CC[C@]12C` [Lithocholic acid], the inhibition at 100 µM under setting [1] stood at 42%.
In the case of `C=C(c1ccc(C(=O)O)cc1)c1cc2c(cc1C)C(C)(C)CCC2(C)C` [Bexarotene], the inhibition at 100 µM under setting [1] came to 58%.
On to `C[C@@](Cc1ccc(O)c(O)c1)(NN)C(=O)O` [Carbidopa], for which the inhibition at 100 µM under setting [1] came to 45%.
On the same count and under the same terms, with `Cc1cc(C(C#N)c2ccc(Cl)cc2)c(Cl)cc1NC(=O)c1cc(I)cc(I)c1O` (centres unmarked) [Closantel] the figure was 72%.
On to `O=C(O)C1=CC(=C(c2ccc(O)c(C(=O)O)c2)c2ccc(O)c(C(=O)O)c2)C=CC1=O` [Aurintricarboxylic acid], for which the inhibition at 100 µM under setting [1] was found to be 75%.
Same read-out and setting: the result for `COC1=C(OC)C(=O)c2ccccc2C1=O` [2,3-Dimethoxy-1,4-naphthoquinone] reads 98%; that for `CC[C@H](c1ccc(O)cc1)[C@@H](CC)c1ccc(O)cc1` [Hexestrol], 50%.
Take `CN(C)[C@@H]1C(O)=C(C(N)=O)C(=O)[C@@]2(O)C(O)=C3C(=O)c4c(O)ccc(Cl)c4[C@@H](O)[C@H]3C[C@@H]12` [Demeclocycline hydrochloride]: the inhibition at 100 µM under setting [1] is 96%.
Turning to `NC(Cc1cc(O)c(O)cc1O)C(=O)O` (racemic) [6-Hydroxy-DL-DOPA], under setting [1], the “Inhibition of CBS activity at 100 μM” value is reported as 77%.
With `O=C(c1ccc(OCCN2CCCCC2)cc1)c1c(-c2ccc(O)cc2)sc2cc(O)ccc12` [Raloxifene], under setting [1], the inhibition at 100 µM was 60%.
Take `CC(C)=CC[C@@H](O)C1=CC(=O)c2c(O)ccc(O)c2C1=O` [Shikonin]: the inhibition at 100 µM under setting [1] worked out at 51%.
`C[C@]12CC[C@@H]3c4ccc(O)cc4CC[C@H]3[C@@H]1CC[C@@H]2O` [Estradiol]: the inhibition at 100 µM under setting [1] was determined as 53%.

The values are drawn from patent publication US10335382B2, “Use of hydrogen sulfide synthesis inhibitors for cancer therapy” (THE BOARD OF REGENTS OF THE UNIVERSITY OF TEXAS SYSTEM, priority 2013, dated 2019).
